What was measured:
[1] = molecular target: T1, human recombinant mu opioid receptor (Homo sapiens, UniProt P35372); test: Radioligand binding, [3H]DAMGO displacement, CHO cell membranes
T1 construct: purchased; host or cells: CHO cells (membranes)

[2] = molecular target: mu receptor-G protein interaction (Homo sapiens, UniProt P35372); test: BRET mu-G protein interaction assay (membranes of SH-SY5Y cells, mu-RLuc/Gβ1-RGFP)
Method: (§1) SH-SY5Y cells stably co-expressing the fusoproteins mu-RLuc and Gβ1-RGFP or mu-RLuc and β-arrestin 2-RGFP were grown in DMEM/F12 (1:1) medium supplemented with 10% FBS, 2 mM L-Glutamine, 100 μg/mL hygromycin B, 400 μg/mL G418, 100 units/mL penicillin G, 100 μg/mL streptomycin and 1 μg/mL Fungizone at 37°C in a humidified atmosphere with of 5% CO2.
Total protein in membrane preparations was determined by colorimetric method with the Quantum Protein-BCA kit (EuroClone, Pero (MI), IT) and measured using the multiplate reader Victor Nivo (PerkinElmer, Walthman, MA, United States). White opaque 96 wells microplates (PerkinElmer, Walthman, MA, United States) were used to carry out BRET assays. Cell membranes were thawed and resuspended in PBS supplemented with 0.02% BSA before the assay, and an amount of 5 μg of total protein was dispensed in each 96 well. All experiments were carried out at room temperature.
(§2) In agonism experiments, ligands were added and incubated for 5 min before microplate reading. […] BRET ratios were computed as follow: RGFPCPS/RLucCPSligand−RGFPCPS/RLucCPSvehicle
(§3) Concentration-response curves to agonists were fitted to the four-parameter logistic non-linear regression model as follows: Effect=Basal+Emax−Basal/1+10^LogEC50−Logligand×HillSlope

[3] = Enzymatic degradation in rat brain homogenate; format: in vitro ADME; details: 37°C; for 100 x k, rate constant of degradation: up to 60 min; for half-life at 0.25 mM: rat, pH 7.4, rat brain homogenate, read-out: t1/2, degradation half-life
Method: Enzymatic degradation of EM-2 and the analogs was performed measuring their hydrolysis rates in the presence of rat brain homogenate. The homogenate was prepared prior to the experiment. Briefly, rat brains were homogenized in 20 volumes of Tris–HCl (50 mM, pH 7.4) using a Polytron and the obtained aliquots were stored at −80°C. In the experiment, aliquotes of brain homogenate (100 μL, 10 mg protein/mL) were incubated with 100 µL of a peptide (0.5 mM) over 0, 7.5; 15, 22.5; 30, and 60 min at 37°C, in a final volume of 200 µL. After the incubation the degradation reaction was stopped by placing the tube on ice and acidifying the content with 20 µL of HCl (1 M). The aliquots were centrifuged at 20,000 g for 10 min at 4°C. The supernatants were collected and filtered using Millex-GV syringe filters (Millipore). Then the analysis by HPLC on a Vydac C18 column (5 μm, 4.6 × 250 mm), using the solvent system of 0.1% TFA in water (A) and 80% acetonitrile in water containing 0.1% TFA (B) and a linear gradient of 0%–100% B over 25 min, was performed. Three independent experiments for each assay were carried out in duplicate. The rate constants of degradation (k) were obtained by the least square linear regression analysis of logarithmic peak areas [ln (A/AD)], where A—amount of remained peptide, AD—initial amount of peptide versus time. Degradation half-lives (t1/2) were calculated from the rate constants as ln2/k.

[4] = n-Octanol/water partition coefficient (log P); format: physicochemical; details: n-octanol / 0.05 M HEPES buffer in 0.1 M NaCl, pH 7.4
Method: Determination of log P was performed according to the method described by ([Liu et al., 2006]). Peptides were dissolved in 0.05 M HEPES buffer in 0.1 M NaCl, pH 7.4, then an equal volume of n-octanol was added and mixtures were vortexed for 2 min. Samples were centrifuged at 4,000 rpm for 1 min. After separation, aqueous and octanol phases were used to quantify peptide content by RP-HPLC.
Octanol phase was lyophilized and reconstituted in 80% acetonitrile in water containing 0.1% TFA before RP-HPLC. All n-octanol/buffer distribution studies were performed in triplicate.

[5] = molecular target: T2, mu receptor-β-arrestin 2 interaction (Homo sapiens, UniProt P35372); test: BRET mu-β-arrestin 2 interaction assay (living SH-SY5Y cells, mu-RLuc/β-arrestin 2-RGFP), agonism; details: BRET mu-β-arrestin 2; Inactive: Emax < 0.10; analog 6 obtained by forcing the Emax to 1
Method: as §1
Mu- β-arrestin 2 interaction—Living SH-SY5Y cells expressing mu-RLuc and β-arrestin 2-RGFP were seeded at a cell density of 100,000 cells/well 24 h prior to the test. On the day of the experiment, medium was discarded, and cells were washed with PBS supplemented with 0.5 mM MgCl2, 0.9 mM CaCl2. Cells were subsequently incubated with 2 μM Prolume Purple Coelenterazine (NanoLight Technology, White Mountain, AZ; United States) for 10 min before bioluminescence reading.
as §2, §3

[6] = molecular target: T3, human recombinant kappa opioid receptor (Homo sapiens, UniProt P41145); test: Radioligand binding, [3H]U-69593 displacement, CHO cell membranes
T3 construct: purchased; host or cells: CHO cells (membranes)

human mu receptor = molecular target: T4, human mu receptor (Homo sapiens, UniProt P35372); test: Calcium mobilization assay, CHO mu cells expressing Gαqi5; format: cell-based; details: for mu α±SEM: intrinsic activity, Emax ratio to standard agonist EM-2, inactive = inactive up to 10 µM
T4 construct: expressed in transfected cells; host or cells: CHO cells stably co-expressing Gαqi5

delta-opioid receptor [7] = molecular target: T5, delta-opioid receptor (Homo sapiens, UniProt P41143); test: Radioligand binding, [3H]deltorphin-2 displacement, CHO cell membranes; set-up: purchased; host or cells: CHO cells (membranes)
human kappa receptor = molecular target: T6, human kappa receptor (Homo sapiens, UniProt P41145); test: Calcium mobilization assay, CHO kappa cells expressing Gαqi5; format: cell-based; details: inactive = inactive up to 10 µM; for Kappa pEC50 (CL95%): calcium mobilization; for Kappa α± SEM: intrinsic activity, Emax ratio to standard agonist dynorphin A
T6 construct: expressed in transfected cells; host or cells: CHO cells stably co-expressing Gαqi5

delta-opioid receptor [8] = molecular target: T5, delta-opioid receptor; test: Calcium mobilization assay, CHO delta cells expressing GαqG66Di5; format: cell-based; set-up: expressed in transfected cells; host or cells: CHO cells co-expressing GαqG66Di5; details: for Delta α± SEM: intrinsic activity, Emax ratio to standard agonist DPDPE; for Delta α± SEM / Delta pEC50 (CL95%): inactive = inactive up to 10 µM; for Delta pEC50 (CL95%): calcium mobilization
[9] = molecular target: T2, mu receptor-β-arrestin 2 interaction; test: cell-based; set-up: expressed in transfected cells; details: read-out: pKb (CL95%) (converted)
Method: In antagonism experiments, a 10 min preincubation with vehicle or fixed concentrations of ligand preceded the injection of increasing concentrations of EM-2.
Antagonist potencies (pKb) were computed applying the following equation: pKb = (log (CR − 1)) − log [Anta] with CR as the ratio between agonist potency (molar) in the presence and absence of antagonist and [Anta] is the molar concentration of antagonist. pKb represents the concentration of antagonist that occupies half of the receptor population at equilibrium, expressed in molar units.

[10] = ref Bergese et al., 2019, cited from earlier work

Sequence of mu receptor-G protein interaction (P62871 whole entry): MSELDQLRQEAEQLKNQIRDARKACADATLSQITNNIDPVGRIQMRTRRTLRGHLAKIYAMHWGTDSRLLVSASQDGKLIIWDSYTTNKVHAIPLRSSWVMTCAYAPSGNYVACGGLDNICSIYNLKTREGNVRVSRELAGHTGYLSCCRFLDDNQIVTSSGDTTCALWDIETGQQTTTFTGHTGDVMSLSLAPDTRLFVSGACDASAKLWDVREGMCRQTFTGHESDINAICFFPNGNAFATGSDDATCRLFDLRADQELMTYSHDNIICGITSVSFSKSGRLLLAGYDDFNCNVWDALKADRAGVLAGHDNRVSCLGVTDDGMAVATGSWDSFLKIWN
Sequence of mu receptor-G protein interaction (P35372 whole entry): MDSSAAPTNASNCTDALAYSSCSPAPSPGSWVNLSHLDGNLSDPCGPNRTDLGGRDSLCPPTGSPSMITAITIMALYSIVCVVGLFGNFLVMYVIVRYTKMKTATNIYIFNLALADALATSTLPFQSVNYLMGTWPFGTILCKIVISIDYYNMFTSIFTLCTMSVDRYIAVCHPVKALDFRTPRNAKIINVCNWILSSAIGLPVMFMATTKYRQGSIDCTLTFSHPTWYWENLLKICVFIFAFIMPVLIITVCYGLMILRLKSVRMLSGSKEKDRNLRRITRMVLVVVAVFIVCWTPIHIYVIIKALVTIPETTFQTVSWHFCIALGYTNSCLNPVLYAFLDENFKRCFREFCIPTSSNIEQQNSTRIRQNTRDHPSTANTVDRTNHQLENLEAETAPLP
T3 sequence (P41145 whole entry): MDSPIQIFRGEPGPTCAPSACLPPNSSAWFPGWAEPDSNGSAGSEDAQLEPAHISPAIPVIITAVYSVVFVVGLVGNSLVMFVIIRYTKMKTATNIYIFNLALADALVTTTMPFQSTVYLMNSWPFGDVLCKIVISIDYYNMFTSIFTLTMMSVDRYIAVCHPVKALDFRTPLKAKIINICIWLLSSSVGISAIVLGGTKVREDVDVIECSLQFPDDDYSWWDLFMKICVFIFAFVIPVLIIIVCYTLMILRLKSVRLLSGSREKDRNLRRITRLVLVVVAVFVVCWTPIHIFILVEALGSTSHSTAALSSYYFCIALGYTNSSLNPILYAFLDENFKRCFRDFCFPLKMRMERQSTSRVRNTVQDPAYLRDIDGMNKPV
T6 sequence (P41145 whole entry): as above
T4 sequence (P35372 whole entry): as the sequence (P35372 whole entry) above
T2 sequence (P35372 whole entry): as above
T5 sequence (P41143 whole entry): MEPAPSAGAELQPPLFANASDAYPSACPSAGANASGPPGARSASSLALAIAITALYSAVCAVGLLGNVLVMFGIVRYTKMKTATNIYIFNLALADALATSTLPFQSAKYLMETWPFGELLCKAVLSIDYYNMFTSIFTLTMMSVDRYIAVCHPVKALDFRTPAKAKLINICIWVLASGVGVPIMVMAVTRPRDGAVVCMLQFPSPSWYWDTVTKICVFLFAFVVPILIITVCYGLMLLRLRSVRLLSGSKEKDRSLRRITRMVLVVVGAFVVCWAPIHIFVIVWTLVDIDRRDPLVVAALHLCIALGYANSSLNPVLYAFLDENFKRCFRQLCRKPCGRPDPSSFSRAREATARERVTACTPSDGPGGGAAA
T1 sequence (P35372 whole entry): as the sequence (P35372 whole entry) above

Row | SMILES | Ki [1] | EC50 [2] | 100 x k, rate constant of degradation [3] | half-life at 0.25 mM ([3]; ln2/k) | logD [4] | β-Arrestin 2 pEC50 (CL95%) [5] | Ki [6] | EC50 (human mu receptor) | mu α±SEM (human mu receptor) | Ki (delta-opioid receptor [7]) | Kappa pEC50 (CL95%) (human kappa receptor) | Kappa α± SEM (human kappa receptor) | EC50 (delta-opioid receptor [8]) | Delta α± SEM (delta-opioid receptor [8]) | Kb [9] | patients with lack of efficacy ([10]; moderate to severe acute pain in adults) | patients who experienced some adverse effects (vomiting, nausea, headache, or constipation) [10] | Delta pEC50 (CL95%) (delta-opioid receptor [8]) | t1/2, degradation half-life ([3]; ln2/k)
1 | Cc1cc(O)cc(C)c1C[C@H](N)C(=O)N1CCCC[C@@H]1C(=O)N[C@@H](Cc1ccccc1)C(=O)N[C@@H](Cc1ccccc1)C(N)=O [analog 3, Dmt-(R)-Pip-Phe-Phe-NH2] | 3.92 ± 0.5 nM | 1.91 nM | 0.73 ± 0.07 per min | 1.57 ± 0.0467 h | 2.49 | Inactive | 72 ± 6 nM | 1.51 nM | 0.70 ± 0.03 | 37 ± 5 nM | inactive | inactive | 148 nM | 0.56 ± 0.05 | 0.0794 nM | – | – | – | –
2 | COc1ccsc1CNCC[C@@]1(c2ccccn2)CCOC2(CCCC2)C1 [oliceridine, [(3-methoxythiophen-2-yl)methyl]({2-[(9R)-9-(pyridin-2-yl)-6-oxaspiro-[4.5]decan-9-yl]ethyl})amine] | – | – | – | – | – | – | – | – | – | – | – | – | – | – | – | less than 5% | 64% | – | –
3 | NC(=O)[C@H](Cc1ccccc1)NC(=O)[C@H](Cc1ccccc1)NC(=O)[C@H]1CCCCN1C(=O)[C@@H](N)Cc1ccc(O)cc1 [analog 2, Tyr-(R)-Pip-Phe-Phe-NH2] | 17.7 ± 1.14 nM | 38 nM | 0.57 ± 0.08 per min | 2.02 ± 0.0517 h | 2.3 | Inactive | > 1000 nM | 58.9 nM | 0.64 ± 0.04 | 682 ± 33 nM | inactive | inactive | – | inactive | 170 nM | – | – | inactive | –
4 | NC(=O)[C@H](Cc1ccccc1)NC(=O)[C@@H](CNC(=O)[C@@H]1CCCN1C(=O)[C@@H](N)Cc1ccc(O)cc1)Cc1cccc2ccccc12 [analog 10, Tyr-Pro-(R)-β ^ 2 -1-Nal-Phe-NH2] | – | 105 nM | 0.41 ± 0.02 per min | 2.8 h | 2.5 | Inactive | > 1000 nM | – | 0.25 ± 0.06 | > 1000 nM | inactive | inactive | – | inactive | 631 nM | – | – | inactive | 2.805 ± 0.0917 h
5 | Cc1cc(O)cc(C)c1C[C@H](N)C(=O)N1CCC[C@H]1C(=O)NC[C@@H](Cc1cccc2ccccc12)C(=O)N[C@@H](Cc1ccccc1)C(N)=O [analog 11, Dmt-Pro-(R)-β ^ 2 -1-Nal-Phe-NH2] | – | 4.9 nM | 0.56 ± 0.02 per min | 2.05 ± 0.0983 h | 2.71 | Inactive | > 1000 nM | 9.77 nM | 0.57 ± 0.05 | – | inactive | inactive | – | inactive | 0.398 nM | – | – | inactive | –
